The values below come from article doi:10.1101/2020.02.18.954917v1 (biorxiv, 2020).

Experiment [1] has as its target T1, Them1 StarD (Them1 START domain) (Homo sapiens, UniProt Q8WXI4).
T1 sequence (Q8WXI4 339-594 isoform Q8WXI4-2): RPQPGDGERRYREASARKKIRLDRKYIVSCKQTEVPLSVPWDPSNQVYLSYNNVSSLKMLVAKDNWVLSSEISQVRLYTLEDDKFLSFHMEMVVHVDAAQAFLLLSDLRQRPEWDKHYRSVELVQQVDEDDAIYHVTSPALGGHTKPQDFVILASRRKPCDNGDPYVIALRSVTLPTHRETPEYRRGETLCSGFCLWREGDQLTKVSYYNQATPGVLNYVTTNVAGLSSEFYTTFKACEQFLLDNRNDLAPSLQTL
As to the kind of experiment: microscale thermophoresis, RED-tris-NTA labelled His-tagged StarD. It is filed as binding.

The target of experiment [2] is T1, Them1 StarD (Them1 START domain). As to the kind of experiment: differential scanning fluorimetry, SYPRO orange. It is filed as binding. The conditions noted are these: 10 μM protein, 50 μM ligand, 2% ethanol.

As a reminder, the Kd is the concentration at which binding is half-saturated. On to `CCCCCCCCCCCCCCCCCC(=O)O` [stearic acid], for which the Kd in experiment [1] turned out to be 9.5 µM.

For the compound `CCCCCCCC/C=C\CCCCCCCC(=O)OC[C@@H](O)COP(=O)([O-])OCC[N+](C)(C)C` [18:1 LPC], the Tm decrease in experiment [2] is ~ 5 °C.

Take `CCCCCCCCCCCCCCCC(=O)O` [palmitic acid]: the Kd in experiment [1] was determined as 45.9 µM.

`CCCCCCCCCCCCCC(=O)O` [myristic acid]: the Kd in experiment [1] turned out to be 70.8 µM.
